This note sets out measurements from PubChem BioAssay (NCI).

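Five compound concentrations were applied to cells in 96-well plates for 48 hours; endpoints were derived by simple linear interpolation of the resulting dose-response curve. GI50 = concentration required for 50% inhibition of growth. The concentration for full growth arrest is given as TGI.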

Common to all, as to experiment: NCI anticancer screen, dose series, 48 h
For assay [1], the system named is NCI/ADR-RES ovarian.
Assay [2] concerns IGROV1 ovarian.
In assay [3] the test system is HL-60(TB) leukemia.
The test system of assay [4] is MOLT-4 leukemia.
In assay [5] the test system is NCI-H23 lung.
The test system of assay [6] is PC-3 prostate.
Assay [7] deals with MDA-MB-435.
The subject of assay [8] is MALME-3M melanoma.
For assay [9], the system named is OVCAR-3 ovarian.
Assay [10] has as its system UACC-62 melanoma.

On to `c1cn(C23C4C5C6C4C2C6C53)cn1` (stereo not drawn), for which the TGI in assay [1], in assay [2], in assay [3], in assay [4], in assay [5] and in assay [6] was more than 100 µM in each case. The same compound registered a TGI in assay [7] of more than 100 µM.

On to `O=C(Cn1c(C(=O)/C=C/c2cccs2)nc2ccccc21)c1ccc(Cl)cc1`, for which the TGI is 38.4 µM in [1]; 77.7 µM in assay [2]; 54.7 µM in assay [8]; 61.3 µM in [3]; 36.8 µM in assay [5]; 57.3 µM in [9]. For the same compound, the TGI in [10] and in assay [7] was more than 100 µM each time.

Take `CC1(C)[C@H]2CC[C@]1(C)[C@H](OC(=O)NNC(=O)O[C@@H]1C[C@@H]3CC[C@@]1(C)C3(C)C)C2`: the TGI amounted to 30.4 µM in assay [2]; 33.8 µM in assay [8]; 62.7 µM in assay [3]; 27.3 µM in assay [4]; 34.9 µM in assay [5]; 25.6 µM in assay [9]. In addition, the TGI was 38.8 µM in assay [10] and 64.4 µM in assay [7].

Take `CSC1=N/C(=C\c2ccco2)C(=O)N1CN1CCOCC1`: the TGI is more than 100 µM in [1]; more than 100 µM in assay [2]; more than 80.7 µM in assay [8]; more than 96.2 µM in assay [4]; more than 100 µM in [5]; more than 100 µM in assay [9]. Also, the TGI in assay [10], in assay [6] and in assay [7] was more than 100 µM throughout.

On to `CCOC(=O)c1cc2c(C(=O)c3ccc([N+](=O)[O-])cc3)c(C(C)=O)ccc2[nH]1`, for which the TGI in assay [2], in assay [3], in assay [4], in [5], in [9] and in [10] was more than 100 µM each time. The TGI in assay [6] and in [7] was more than 100 µM throughout.

As to `COC(=O)[C@H]1CO[C@H]2C/C(C)=C/CC/C(C)=C/CC[C@@]3(C)O[C@@H]3C[C@H]21`, the TGI in [1] is 29 µM; in assay [2], more than 50 µM; in [3], 26.2 µM; in assay [4], 28.7 µM; in [5] it was more than 50 µM; in assay [9] it was 47.3 µM. Moreover, the TGI in assay [10] was 18.2 µM; in assay [6] it was more than 50 µM; in [7] it was 25.1 µM.

Regarding `COC1OC2COC1(OC)C1OC(C)(C)OC21` (stereo not drawn), the TGI in assay [1], in [2], in [8], in assay [4], in assay [5] and in assay [9] was more than 100 µM in each case. Besides, the TGI in [10], in assay [6] and in assay [7] was more than 100 µM throughout.

For the compound `O=C(c1cc(Cl)ccc1Cl)N1CCN(C(=O)c2cc(Cl)ccc2Cl)CC1`, the TGI in [2], in assay [8], in assay [3], in assay [4], in [5] and in [9] was more than 100 µM throughout. The compound also returned a TGI in assay [6] of more than 100 µM.

Take `COc1ccc(-c2cc(-c3ccc(Nc4ccnc5cc(Cl)ccc45)cc3)[nH]c(=O)c2C#N)c2ccccc12`: the TGI in [1] was more than 100 µM; in [2], more than 79.1 µM; in [8], 8.01 µM; in assay [3] it was 6.04 µM; in [4], 6.17 µM; in [5], more than 91.6 µM. The TGI in assay [9] is 5.34 µM; in [10], 46.7 µM; in [6] it was more than 100 µM.

As to `C[C@H]1C[C@H]2[C@@H]3C(C)(C)O[C@]4(O)C(=O)[C@]5(O)[C@@H](C)CC[C@H]1[C@]25C(=O)[C@]34C`, the TGI in assay [1] is more than 100 µM; in assay [2], more than 100 µM; in assay [3], 59.2 µM; in assay [4], 80.7 µM; in assay [5] it was more than 100 µM; in assay [9] it was 68.1 µM. The TGI was more than 100 µM in assay [10], more than 100 µM in assay [6] and 96.3 µM in assay [7].

On to `O=C1/C(=N\S(=O)(=O)c2ccccc2)C([n+]2ccc(Cc3ccccc3)cc2)=C([O-])c2ccccc21`, for which the TGI stood at 18.3 µM in assay [1]; 4.92 µM in assay [2]; 1.73 µM in assay [8]; 4.49 µM in [4]; 1.36 µM in assay [5]; 2.2 µM in [9]. Moreover, the TGI in assay [10] was 2.42 µM; in assay [6], 9.39 µM; in assay [7] it was 0.377 µM.

`Cc1c(NC(=O)CSC(=S)N2CCN(Cc3ccccc3)CC2)c(=O)n(-c2ccccc2)n1C`: the TGI in assay [1], in [2], in assay [8], in assay [4], in assay [5] and in [9] was more than 100 µM throughout. Also, the TGI in [6] and in [7] was more than 100 µM each time.

Consider `COc1ccc(C(=O)/C=C/c2c(Cl)c3c(c(OC)c2Cl)OCC(=O)N3)cc1`, for which the GI50 in [1] was 2.62 µM; in assay [2], 3.28 µM; in assay [8] it was 2.28 µM; in assay [3] it was 2.49 µM; in [4], 2.71 µM; in assay [5], 2.23 µM. Moreover, the GI50 in assay [10] is 1.68 µM. The TGI is 7.08 µM in assay [1]; more than 100 µM in [2]; 4.99 µM in [8]; 10.6 µM in [3]; 9.75 µM in assay [4]; 4.85 µM in [5]. Further, the TGI in assay [10] came out at 3.59 µM.

As to `COc1cc(C2c3cc4c(cc3OC(NNC(N)=O)C2C)OCO4)cc(OC)c1O` (stereo not drawn), the TGI was more than 76.1 µM in [1]; more than 100 µM in [2]; more than 100 µM in assay [8]; 7.84 µM in assay [3]; more than 100 µM in assay [4]; more than 100 µM in [5]. Also, the TGI was 10.1 µM in assay [9], more than 100 µM in assay [10] and more than 100 µM in assay [6].
